# Test results published in patent US20220133738A1, “GENOTYPE AND DOSE-DEPENDENT RESPONSE TO AN ASBTI IN PATIENTS WITH BILE SALT EXPORT PUMP DEFICIENCY” (MIRUM PHARMACEUTICALS, INC., priority 2019, published 2022).
# “And” between values parts separate entries of the source, which are not always exact repeats. Equal entries are not always repeated.
# What was measured:
# [1] = tested on: children with progressive familial intrahepatic cholestasis (PFIC); assay: INDIGO phase 2 open-label efficacy and safety study of maralixibat in children with PFIC; format: in vivo, human; conditions: week 48
# [2] = tested on: children with Alagille syndrome (ALGS); assay: ICONIC phase 2b randomized placebo-controlled drug-withdrawal study with long-term extension of maralixibat in Alagille syndrome; conditions: for C4, mean: baseline 7.4; for Serum cholesterol, mean: baseline 414.3; for ItchRO(Obs) Weekly Morning Average Score, Average Change from Baseline: week 48
# Experimental: Children aged 1-18 years with a diagnosis of ALGS and evidence of cholestasis were eligible to enroll in the ICONIC clinical study, see Tables 12-14. During a long-term extension, participants with sBA levels above the upper limit of normal and/or an ITCHRO(OBS) score >1.5 were eligible for the 400 μg/kg BID dose (all participants received the 400 μg/kg BID dose). Inclusion criteria for the ICONIC study included having cholestasis, which was defined as at least one of 1) sBA concentration (total sBA) >3× the upper limit of normal, 2) serum conjugated bilirubin concentration >1 mg/dL, 3) fat-soluble vitamin deficiency not otherwise explained, 4) serum gamma-glutamyl transferase concentration >3× the upper limit of normal, and 3) intractable pruritus explainable only by liver disease. Inclusion criteria also included having significant pruritus, which was defined as an average daily score of >2 on the ITCHRO(OBS) scale for 2 consecutive weeks (0=no pruritus; 4=most severe pruritus). Exclusion criteria included having surgically disrupted enterohepatic circulation, a liver transplant, decompensated cirrhosis, or having any liver disease other than ALGS.
# sBA responders were defined as those patients achieving ≥50% reduction from baseline in sBA at week 12 or 18. ITCHRO responders were defined as those patients achieving at least a 1-point reduction from Baseline in weekly morning ITCHRO(OBS) score at week 12 or 18.
# In the open label extension, the effect of higher doses was explored by increasing dosage to a maximum of 400 μg/kg BID in eligible participants.
# Efficacy assessments were based on changes from baseline in sBA concentration, weekly average ITCHRO(OBS) scores (0, none; 4, most severe), CSS score (0, none; 4 most severe), and Clinician Xanthoma Scale score (0, none; 4, disabling). […] During the long-term extension, efficacy assessments were conducted every 12 weeks.
# sBA were measured using a fully validated liquid chromatography-electrospray ionization-mass electrospray (LC-ESI-MS) method using stable-isotope dilution analysis to measure serum concentrations of principal bile acids (cholic, chenodeoxycholic, ursodeoxycholic, deoxycholic acid, lithocholic, and their corresponding glycine and taurine conjugates). […] Calibration standards of individual bile acids were in the range of 50-25,000 ng/mL and Quality Control samples were prepared at concentrations of 100, 500, 1000, 2500, and 20000 ng/mL. The intra- and inter-assay imprecision of the method for individual bile acids measured was within the accepted GLP quality assurance guidelines of <15% coefficient of variance for these QC samples. The lower limit of quantification of the assay was set at 100 ng/mL and the imprecision at this concentration was <20%. The limit of detection of the assay was 5 ng/mL. Total sBA is represented by the sum of the individual bile acid species measured.
# [3] = Withdrawal - Week 22, maralixibat group
# [4] = individual subjects, one line per Subject ID of Table 18
# [5] = individual subjects, one line per Subject ID of Table 19
# [6] = sBA Normalization (<8.5 μmol/L)
compound,measurement,setting,value
CCCCC1(CCCC)CS(=O)(=O)c2ccc(N(C)C)cc2[C@@H](c2ccc(OCc3ccc(C[N+]45CCN(CC4)CC5)cc3)cc2)[C@H]1O [maralixibat],"ALT, change from baseline to week 48, mean",[1],−12 UI/L
same,"C4, change from baseline to week 48, mean",[1],+6.0 ng/mL
same,"ItchRO(Obs) score, change from baseline to week 48, mean",[1],−1.0
same,"Total bilirubin, change from baseline to week 48, mean",[1],+0.8 mg/dL
same,"sBA, change from baseline to week 48, mean",[1],-32 µmol/L
same,"sBA, pruritus, and growth after the higher daily dose",[2]; 400 μg/kg BID relative to 400 μg/kg QD,further improvements
same,weight Z-scores,"[2]; 400 μg/kg BID versus 400 μg/kg QD, FIGS. 35-36",dose-dependent increase
same,"Height Z-score, increase from baseline","[2]; ICONIC participants, FIGS. 33-34, SE 0.1",0.5
same,"ItchRO (Obs) responders, Decrease from baseline ≥1",[2]; Open-label Week 18,67.7%
same,"ItchRO (Obs) responders, Decrease from baseline ≥1.25",[2]; Open-label Week 18,58.1%
same,"ItchRO (Obs) responders, Decrease from baseline ≥1.5",[2]; Open-label Week 18,51.6%
same,"ItchRO (Obs) responders, Decrease from baseline ≥1",[2]; Open-label Week 48,72.4%
same,"ItchRO (Obs) responders, Decrease from baseline ≥1.25",[2]; Open-label Week 48,58.6%
same,"ItchRO (Obs) responders, Decrease from baseline ≥1.5",[2]; Open-label Week 48,51.7%
same,"C4, mean","[2]; Week 48, n = 15",20.4 ng/mL
same,"Serum cholesterol, mean","[2]; Week 48, n = 15",340.3 mg/dL
same,"C4, mean","[2]; Week 191, n = 15",30.4 ng/mL
same,"Serum cholesterol, mean","[2]; Week 191, n = 15",277.5 mg/dL
same,"ItchRO (Obs) responders, Decrease from baseline ≥1",[2]; [3],53.8%
same,"ItchRO (Obs) responders, Decrease from baseline ≥1.25",[2]; [3],46.2%
same,"ItchRO (Obs) responders, Decrease from baseline ≥1.5",[2]; [3],23.1%
same,study days across participants with minimal or no pruritus (ITCHRO(OBS)≤1),[2]; after 98 weeks,over 89%
same,Clinician xanthoma scale scores,[2]; all participants by week 48 (p<0.01),improved significantly
same,"sBA levels, reduction from baseline","[2]; at 191 weeks, long-term extension",about 57%
same,"ITCHRO(OBS) score, mean change from baseline","[2]; at 191 weeks, SE 0.2",−2.5
same,"CSS score, mean reduction","[2]; at 191 weeks, SE 0.4",2.4 points
same,ITCHRO(OBS) final score,[2]; at 193 weeks,about 0.33
same,"ITCHRO(OBS) score, mean reduction",[2]; at 193 weeks,over 2 points
same,"CSS scores, average decrease","[2]; by week 48, all participants",over 1.5 points
same,"Clinician Xanthoma Score, reduction from baseline","[2]; by week 191, SE 0.3",0.7 points
same,"ITCHRO(OBS) scores, average decrease relative to baseline",[2]; by week 193,over 1.5 points
same,PedsQL Multidimensional Fatigue Scale scores,[2]; core study and extension (p<0.01),Improvements
same,tolerability,"[2]; core study and extension, over three years",well tolerated
same,tolerability,"[2]; doses up, treatment duration up to 4 years",generally well tolerated
same,"sBA concentration, decrease","[2]; first 18 weeks, 400 μg/kg QD",31%
same,"ITCHRO(OBS) scores, mean change from baseline","[2]; first 18 weeks, 400 μg/kg QD, SE 0.2",−1.7
same,Change in ItchRO from Baseline to Week 48 (ITCHRO(OBS) weekly morning average score),[2]; [4],−0.12 and 0.49 and −0.45 and 1.29 and −3.86 and 0.00 and −2.57 and −0.86 (2×) and −0.71 (2×) and −0.00 (2×) and −0.29 and −0.67 and −0.14 and −0.03 and −3.29 (2×) and −3.43 and −2.50 and −2.71 (2×) and −3.50 and −2.29 and −0.17 and −0.43 and −0.83
same,"Serum Bile Acid, Change from Baseline to Week 48",[2]; [4],−56.4 μmol/L and −166.3 μmol/L and −281.4 μmol/L and 166.4 μmol/L and −121.1 μmol/L and 4.3 μmol/L (2×) and −251.0 μmol/L and 3.3 μmol/L and −27.3 μmol/L and −155.5 μmol/L and −240.2 μmol/L and 9.0 μmol/L and 143.1 μmol/L and −112.2 μmol/L and 16.4 μmol/L and −10.9 μmol/L and −16.9 μmol/L and 54.5 μmol/L and −620.4 μmol/L and −23.9 μmol/L and −377.3 μmol/L and −205.9 μmol/L and −270.4 μmol/L and 25.5 μmol/L and −203.6 μmol/L and −96.4 μmol/L and −33.9 μmol/L
same,"Serum Bile Acid, Week 48",[2]; [4],22.9 µmol/L and 131.8 µmol/L and 98.5 µmol/L and 578.1 µmol/L and 20.8 µmol/L and 333.0 µmol/L and 119.6 µmol/L and 117.7 µmol/L and 492.6 µmol/L and 427.9 µmol/L and 199.8 µmol/L and 29.2 µmol/L and 891.6 µmol/L and 163.4 µmol/L and 60.2 µmol/L and 12.0 µmol/L and 23.6 µmol/L and 126.1 µmol/L and 37.0 µmol/L and 7.0 µmol/L and 101.9 µmol/L and 293.3 µmol/L and 65.0 µmol/L and 110.9 µmol/L and 35.8 µmol/L and 208.0 µmol/L and 55.8 µmol/L and 15.6 µmol/L
same,"ItchRO(Obs) Weekly Morning Average Score, Change from Baseline to Week 48",[2]; [5],−0.12 and 0.49 and −0.45 and 1.29 and −3.86 and 0.00 and −2.57 and −0.86 (2×) and −0.71 (2×) and −0.00 (2×) and −0.29 and −0.67 and −0.14 and −0.03 and −3.29 (2×) and −3.43 and −2.50 and −2.71 (2×) and −3.50 and −2.29 and −0.17 and −0.43 and −0.83
same,"ItchRO(Obs) Weekly Morning Average Score, Week 48",[2]; [5],2.71 and 3.20 and 1.83 and 3.71 and 0.14 and 1.86 and 0.71 and 1.14 (2×) and 0.29 (2×) and 2.00 (2×) and 1.71 (2×) and 1.00 and 1.40 and 0.00 (7×) and 1.43 and 1.57 and 3.50 and 2.17
same,"sBA levels, least squares mean difference maralixibat vs placebo","[2]; randomized withdrawal (week 18-22), SE 48.0",−114.0
same,"ITCHRO(OBS), LS mean difference maralixibat vs placebo","[2]; randomized withdrawal, SE 0.3",−1.5
same,"ItchRO(Obs) Weekly Morning Average Score, Week 48 Average Score",[2]; [6],0.00
same,"participants meeting sBA Response Definition, Week 48 (N = 28), %",[2]; [6],(3.6%)
same,"ItchRO(Obs) Weekly Morning Average Score, Average Change from Baseline",[2]; [6],−3.50
same,"ItchRO(Obs) Weekly Morning Average Score, Week 48 Average Score",[2]; sBA ≥50% Reduction,1.07
same,"participants meeting sBA Response Definition, Week 48 (N = 28), %",[2]; sBA ≥50% Reduction,(46.4%)
same,"ItchRO(Obs) Weekly Morning Average Score, Average Change from Baseline",[2]; sBA ≥50% Reduction,−1.86
same,"ItchRO(Obs) Weekly Morning Average Score, Week 48 Average Score",[2]; sBA ≥60% Reduction,0.82
same,"participants meeting sBA Response Definition, Week 48 (N = 28), %",[2]; sBA ≥60% Reduction,(39.3%)
same,"ItchRO(Obs) Weekly Morning Average Score, Average Change from Baseline",[2]; sBA ≥60% Reduction,−2.12
same,"ItchRO(Obs) Weekly Morning Average Score, Week 48 Average Score",[2]; sBA ≥70% Reduction,0.62
same,"participants meeting sBA Response Definition, Week 48 (N = 28), %",[2]; sBA ≥70% Reduction,(28.6%)
same,"ItchRO(Obs) Weekly Morning Average Score, Average Change from Baseline",[2]; sBA ≥70% Reduction,−2.31
same,"ItchRO(Obs) Weekly Morning Average Score, Week 48 Average Score",[2]; sBA ≥80% Reduction,0.11
same,"participants meeting sBA Response Definition, Week 48 (N = 28), %",[2]; sBA ≥80% Reduction,(14.3%)
same,"ItchRO(Obs) Weekly Morning Average Score, Average Change from Baseline",[2]; sBA ≥80% Reduction,−2.79
same,"ItchRO(Obs) Weekly Morning Average Score, Week 48 Average Score",[2]; sBA ≥90% Reduction,0.00
same,"participants meeting sBA Response Definition, Week 48 (N = 28), %",[2]; sBA ≥90% Reduction,(3.6%)
same,"ItchRO(Obs) Weekly Morning Average Score, Average Change from Baseline",[2]; sBA ≥90% Reduction,−2.71
same,CSS final average score,"[2]; week 48, all participants",about 1.5
